Results reported in patent publication US20210386367A1, “DEVICES AND SYSTEMS FOR GASTROINTESTINAL MICROBIOME DETECTION AND MANIPULATION” (Progenity, Inc., priority 2018, published 2021).
≈ marks a conversion by molar mass, not a printed value. Read-outs that look alike come from different tables or passages of the source.

Assays:
Bacteroides fragilis = assay: Agar dilution MIC, 30 clinical isolates; assay type: cell-based
E. coli MMX 1312 = assay: Broth microdilution MIC (time-kill study); assay type: cell-based, Escherichia coli
S. pyogenes ATCC 49399 [1] = assay: Broth microdilution MIC (time-kill study); assay type: cell-based, Streptococcus pyogenes
S. agalactiae ATCC 13813 [2] = assay: Broth microdilution MIC (time-kill study); assay type: cell-based, Streptococcus agalactiae
B. fragilis ATCC 25285 = assay: Broth microdilution MIC (time-kill study); assay type: cell-based, Bacteroides fragilis
B. vulgatus ATCC 8482 = assay: Broth microdilution MIC (time-kill study); assay type: cell-based, Bacteroides vulgatus
E. coli ATCC 35218 = assay: Time-kill assay; assay type: cell-based, Escherichia coli; settings: 2×, 4×, 8× MIC; 2, 6, 24 hr
S. pneumoniae ATCC 49619 = assay: Time-kill assay; assay type: cell-based, Streptococcus pneumoniae; settings: 2×, 4×, 8× MIC; 2, 6, 24 hr
S. pyogenes ATCC 49399 [3] = assay: Time-kill assay; assay type: cell-based, Streptococcus pyogenes; settings: 2×, 4×, 8× MIC; 2, 6, 24 hr
S. agalactiae ATCC 13813 [4] = assay: Time-kill assay; assay type: cell-based, Streptococcus agalactiae; settings: 2×, 4×, 8× MIC; 2, 6, 24 hr
[5] = system: three isolates each of E. coli, Streptococcus spp. and Bacteroides spp.; assay: Time-kill assay, overall summary; assay type: cell-based
Method: MIC values were determined by broth microdilution in accordance with guidelines from the Clinical and Laboratory Standards Institute (CLSI; (1) “Methods for Dilution Antimicrobial Susceptibility Tests for Bacteria That Grow Aerobically; Approved Standard; 11th ed.,” CLSI standard M07, 2018; (2) “Performance Standards for Antimicrobial Susceptibility Testing; 28th ed.,” CLSI supplement M100, 2018).
During the time-kill study, the test flasks were sampled at 2, 6, and 24 hr for determination of viable counts using the track dilution method as described above. Bacteroides was also sampled at 48 hr. All E. coli plates were incubated for 20-24 hr at 35° C., Streptococci for 20-24 hr at 35° C. in a CO2 incubator, and Bacteroides for approximately 48 hr at 35° C. in the anaerobe chamber. Colonies were counted manually, and the CFU/mL was determined from the average count of the duplicate plates, followed by the calculation of the log10 CFU/mL. The limit of detection for the assay was 50 CFU/mL.

[6] = system: Streptococcus spp. (S. pneumoniae ATCC 49619, S. pyogenes ATCC 49399, S. agalactiae ATCC 13813); assay: Agar dilution MIC (spontaneous mutation study; strain in conditions); assay type: cell-based
[7] = system: E. coli spontaneous mutants; assay: Broth microdilution MIC of spontaneous mutants; assay type: cell-based, Escherichia coli; settings: Escherichia coli
Outline: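 Spontaneous mutants from drug selection plates were tested by CLSI broth microdilution in MHB II with two-fold serial drug dilutions. Inoculum was about 5×10^5 CFU/mL, incubated aerobically at 35° C. for 18-20 hr. MIC was the lowest concentration inhibiting visible growth.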

[8] = system: E. coli spontaneous mutants; settings: E. coli ATCC 25922; CLSI QC range shown in parentheses; cited from earlier work
[9] = system: Streptococcus spp. spontaneous mutants; settings: S. pneumoniae ATCC 49619; CLSI QC range shown in parentheses; cited from earlier work
[10] = 30 Bacteroides fragilis clinical isolates

CO/N=C(\C(=O)N[C@@H]1C(=O)N2C(C(=O)O)=C(CSc3nc(=O)c(=O)[nH]n3C)CS[C@H]12)c1csc(N)n1 [ceftriaxone]
isolates resistant (Bacteroides fragilis): Thirty-three | isolates with intermediate resistance (Bacteroides fragilis): 27% | % I (Bacteroides fragilis; [10]): 27% | % R (Bacteroides fragilis; [10]): 33% | % S (Bacteroides fragilis; [10]): 40% | MIC50 (Bacteroides fragilis; [10]): 32 µg/mL (≈ 57.7 µM) | MIC90 (Bacteroides fragilis; [10]): >128 µg/mL | MIC range (Bacteroides fragilis; [10]): 8 to 128 µg/mL | MIC50 (Bacteroides fragilis; Bacteroides fragilis, read-out: MIC50): 32 µg/mL (≈ 57.7 µM) | MIC90 (Bacteroides fragilis; Bacteroides fragilis, read-out: MIC90): > 128 µg/mL | Mode (Bacteroides fragilis; modal MIC, 30 Bacteroides fragilis clinical isolates): 16 µg/mL | MIC (E. coli MMX 1312; E. coli MMX 1312): 4 µg/mL (≈ 7.21 µM) | MIC (E. coli MMX 1312; Escherichia coli, MMX1312, broth microdilution, read-out: MIC): 4 µg/mL (≈ 7.21 µM) | MIC (S. pyogenes ATCC 49399 [1]; S. pyogenes ATCC 49399): 0.015 µg/mL (≈ 0.027 µM) | MIC (S. pyogenes ATCC 49399 [1]; Streptococcus pyogenes, ATCC49399, broth microdilution, read-out: MIC): 0.015 µg/mL (≈ 0.027 µM) | MIC (S. agalactiae ATCC 13813 [2]; S. agalacttae ATCC 13813 (so in the source)): 0.015 µg/mL (≈ 0.027 µM) | MIC (S. agalactiae ATCC 13813 [2]; Streptococcus agalactiae, ATCC13813, broth microdilution, read-out: MIC): 0.015 µg/mL (≈ 0.027 µM) | MIC (B. fragilis ATCC 25285; B. fragilis MMX 123 ATCC 25285): 32 µg/mL (≈ 57.7 µM) | MIC (B. fragilis ATCC 25285; Bacteroides fragilis, ATCC25285, broth microdilution, read-out: MIC): 32 µg/mL (≈ 57.7 µM) | MIC (B. vulgatus ATCC 8482; B. vulgatus ATCC 8482): 2 µg/mL (≈ 3.61 µM) | MIC (B. vulgatus ATCC 8482; Phocaeicola vulgatus, ATCC8482, broth microdilution, read-out: MIC): 2 µg/mL (≈ 3.61 µM) | time-kill kinetics outcome (bactericidal = ≥3 log reduction in CFU per mL) (E. coli ATCC 35218): bactericidal at 24 hr at 4× and 8×MIC | time-kill kinetics outcome (bactericidal = ≥3 log reduction in CFU per mL) (S. pneumoniae ATCC 49619): all three drug concentrations tested demonstrated bactericidal effects at 24 hr | time-kill kinetics outcome (bactericidal = ≥3 log reduction in CFU per mL) (S. pyogenes ATCC 49399 [3]): bactericidal effect at 4× and 8×MIC at 24 hr | time-kill kinetics outcome (bactericidal = ≥3 log reduction in CFU per mL) (S. agalactiae ATCC 13813 [4]): bactericidal effect at 24 hr at 8×MIC, as did ceftriaxone (6 and 24 hr) | overall time-kill outcome [5]: bactericidal activity | MIC ([6]; Streptococcus agalactiae, S. agalactiae ATCC 13813, read-out: Agar MIC): 0.06 µg/mL (≈ 0.108 µM) | MIC ([6]; Streptococcus pneumoniae, S. pneumoniae ATCC 49619, read-out: Agar MIC): 0.06 µg/mL (≈ 0.108 µM) | MIC ([6]; Streptococcus pyogenes, S. pyogenes ATCC 49399, read-out: Agar MIC): 0.03 µg/mL (≈ 0.0541 µM) | MIC ([6]; over evaluated Streptococcus spp. (range stated jointly with other groups), read-out: MIC values (agar dilution)): 0.03 to 0.06 µg/mL (≈ 0.0541 to 0.108 µM) | MIC ([7]; ATCC25922, E. coli ATCC 25922, selected on rifaximin 4X MIC, Colony A): 0.03 µg/mL | MIC ([7]; ATCC25922, E. coli ATCC 25922, selected on rifaximin 4X MIC, Colony B): 0.03 µg/mL | MIC ([7]; ATCC25922, E. coli ATCC 25922, selected on rifaximin 8X MIC, Colony A): 0.03 µg/mL | MIC ([7]; ATCC25922, E. coli ATCC 25922 Parent (Table 52)): 0.12 µg/mL | MIC ([7]; ATCC35218, E. coli ATCC 35218, selected on rifaximin 4X MIC, Colony A): 0.03 µg/mL | MIC ([7]; ATCC35218, E. coli ATCC 35218, selected on rifaximin 4X MIC, Colony B): 0.03 µg/mL | MIC ([7]; ATCC35218, E. coli ATCC 35218, selected on rifaximin 8X MIC, Colony A): 0.06 µg/mL | MIC ([7]; ATCC35218, E. coli ATCC 35218, selected on rifaximin 8X MIC, Colony B): 0.03 µg/mL | MIC ([7]; ATCC35218, E. coli ATCC 35218 Parent (Table 52)): 0.03 µg/mL | MIC ([7]; E. coli MMX 1312, selected on ceftriaxone 4X MIC, Colony A): 3 µg/mL | MIC ([7]; E. coli MMX 1312, selected on ceftriaxone 4X MIC, Colony B): 4 µg/mL | MIC ([7]; E. coli MMX 1312, selected on ceftriaxone 4X MIC, Colony C): 8 µg/mL | MIC ([7]; E. coli MMX 1312, selected on ceftriaxone 8X MIC, Colony A): 3 µg/mL | MIC ([7]; E. coli MMX 1312, selected on ceftriaxone 8X MIC, Colony B): 3 µg/mL | MIC ([7]; E. coli MMX 1312, selected on ceftriaxone 8X MIC, Colony C): 4 µg/mL | MIC ([7]; E. coli MMX 1312, selected on rifaximin 4X MIC, Colony A): 2 µg/mL | MIC ([7]; E. coli MMX 1312, selected on rifaximin 4X MIC, Colony B): 2 µg/mL | MIC ([7]; E. coli MMX 1312, selected on rifaximin 8X MIC, Colony A): 8 µg/mL | MIC ([7]; E. coli MMX 1312, selected on rifaximin 8X MIC, Colony B): 8 µg/mL | MIC ([7]; E. coli MMX 1312 Parent): 4 µg/mL | MIC ([7]; E. coli MMX 1312 Parent (Table 49)): 4 µg/mL | MIC ([7]; E. coli MMX 1312 Parent (Table 52)): 4 µg/mL | MIC ([7]; E. coli MMX 1312 mutant selected on meropenem 4X MIC, colony A): 4 µg/mL | MIC ([7]; E. coli MMX 1312 mutant selected on meropenem 4X MIC, colony B): 8 µg/mL | MIC ([7]; E. coli MMX 1312 mutant selected on meropenem 4X MIC, colony C): 4 µg/mL | MIC ([7]; E. coli MMX 1312 mutant selected on meropenem 8X MIC, colony A): 4 µg/mL | MIC ([7]; E. coli MMX 1312 mutant selected on meropenem 8X MIC, colony B): 4 µg/mL | MIC ([7]; E. coli MMX 1312 mutant selected on meropenem 8X MIC, colony C): 4 µg/mL | MIC, CLSI QC range [8]: (0.03-0.12)^1 μg/mL | MIC, CLSI QC range [9]: (0.03-0.12)^1 μg/mL
